In US6933302B2, “Nitrogen-based homo-camptothecin derivatives” (California Pacific Medical Center, priority 2002, dated 2005):

Tested on: VM46 cells
Test: Cell colony formation assay
Format: cell-based
Conditions: 72 hours drug incubation at 37° C., colonies counted after 8 days
Description: This example provides directions for growing cells and testing compounds of the invention for their effect on the growth of the cells. All cells can be purchased from DCTDC Tumor Repository, NCI, NIH.
Cell Colony Formation Assay
Five hundred cells (VM46) are plated in 60 mm Petri dishes containing 2.7 ml of medium (modified McCoy's 5a medium containing 10% fetal bovine serum and 100 units/ml penicillin and […]). The cells are incubated in a CO2 incubator at 37° C. for 5 hours for attachment to the bottom of Petri dishes. Drugs are made fresh in medium at ten times the final concentration, and then 0.3 ml of this stock solution is added to the 2.7 ml of medium in the dish. The cells are then incubated with drugs for 72 hours at 37° C. At the end of the incubation the drug-containing media are decanted, the dishes are rinsed with 4 ml of Hank's Balance Salt Solution (HBSS), 5 ml of fresh medium is added, and the dishes are returned to the incubator for colony formation. The cell colonies are counted using colony counter after incubation for 8 days for VM46 cells. Cell survival (%) is calculated .
Values of ID50 (the drug concentration producing 50% inhibition of colony formation) may be determined for each tested compound. Results are shown in Table I for hCPT as a compound of this invention taught in Example 16.

SMILES	Value of ID50 (drug concentration producing 50% inhibition of colony formation)
CC[C@@]1(O)CC(=O)OCc2c1cc1n(c2=O)Cc2cc3ccccc3nc2-1 [hCPT, homo-camptothecin]	4 NM
CCC1(OC(=O)CCN2CCCCC2)CC(=O)OCc2c1cc1n(c2=O)Cc2cc3ccccc3nc2-1 (centres unmarked) [Example 021219, Homocamptothecin-20-O ester of 1-piperidine Propionic Acid]	3.5 NM
